Reference: patent US9387246B2, “Treatment methods for rheumatoid arthritis” (priority 2013, dated 2016)
Read-outs that look alike come from different tables or passages of the source.

Assays:
[1] = tested on: Rheumatoid arthritis patients; experiment: Change in VECTRA DA Score after treatment (Example 2); assay type: in vivo, human; settings: Patient 6; treatment August 2012-June 2013; score February 2013
Text: VECTRA® DA test is a multi-biomarker disease activity (MBDA) blood test sold by Crescendo Bioscience. The test provides a quantitative assessment of rheumatoid arthritis disease activity in patients by using twelve protein biomarkers—Vascular Cell Adhesion Molecule 1 (VCAM-1), Epidermal Growth Factor (EGF), Vascular Endothelial Growth Factor A (VEGF-A), Interleukin-6 (IL-6), Tumor Necrosis Factor Receptor Type 1 (TNFR1), Matrix Metalloproteinase-1 (MMP-1), Matrix Metalloproteinase-3 (MMP-3), YKL-40, Leptin, Resistin, Serum Amyloid A (SAA), and C-Reactive Protein (CRP). The twelve biomarkers in VECTRA® DA test are relevant to key aspects of the pathophysiology of RA. Li et al., Curr. Med. Res. & Opin. 29(1): 85-92 (2013). The test measures the concentrations of the biomarkers and provides the concentrations and percentile (RA percentile) value for each biomarker. […]
(§1) The patients were treated with the selected treatment methods for at least five months and the post-treatment biomarker levels and VECTRA DA Score were determined by VECTRA® DA test along with CRP level and ESR. The change is VECTRA DA Score, CRP level and ESR was determined to determine the change in disease activity and effectiveness of the selected treatment method.

[2] = tested on: Rheumatoid arthritis patients; experiment: Treatment outcome (effectiveness, clinical course) of treatment methods (Example 2); assay type: in vivo, human; settings: Patient 9; ACTEMRA from May 2012 not algorithm-selected; MTX added October 2012, based on ESR and CRP level
Experimental: as §1

[3] = tested on: Rheumatoid arthritis patients; experiment: Change in VECTRA DA Score after treatment, longer duration (Example 3); assay type: in vivo, human
Experimental: Sixteen rheumatoid arthritis patients were selected for treatment by treatment methods that were selected using the algorithm disclosed herein. Some patients were the same as the patients discussed under Example 2. Example 3, however, tracks patients' responses to treatment for a longer duration and uses VECTRA DA Score to determine effectiveness of the treatment.
VECTRA® DA test was conducted for each patient to determine serum levels of the all the biomarkers and VECTRA DA Score in each patient before treatment. The collection of patients closely resembles the random patient population available nationwide as shown by a comparison of the distribution of VECTRA DA Scores in FIG. 6, as noted under Example 2.
The patients were treated with the selected treatment methods and the post-treatment biomarker levels and VECTRA DA Score were determined by VECTRA® DA test. The change is VECTRA DA Score was determined to determine the change in disease activity and effectiveness of the selected treatment method.
The treatment method (one method or a combination of methods) was determined to be effective when the post-treatment disease activity was lower than the pre-treatment disease activity in the patient: when VECTRA DA Score was lower than the pre-treatment VECTRA DA Score. Specifically, the treatment method was determined to be effective when the post-treatment disease activity was at least 20% lower than the pre-treatment disease activity, or when the VECTRA DA Score is decreased to a lower disease activity level after the treatment (i.e., from high to moderate, or high to low, or moderate to low).

[4] = tested on: Rheumatoid arthritis patients; assay type: in vivo, human
Text: A treatment method administered to a patient may be a combination of one or more treatment methods.

[5] = tested on: Rheumatoid arthritis patients; experiment: VECTRA DA test: serum levels of biomarkers, % elevation over control (InFoRM study); assay type: in vivo, human
Text: VECTRA® DA test is a multi-biomarker disease activity (MBDA) blood test sold by Crescendo Bioscience. The test provides a quantitative assessment of rheumatoid arthritis disease activity in patients by using twelve protein biomarkers—Vascular Cell Adhesion Molecule 1 (VCAM-1), Epidermal Growth Factor (EGF), Vascular Endothelial Growth Factor A (VEGF-A), Interleukin-6 (IL-6), Tumor Necrosis Factor Receptor Type 1 (TNFR1), Matrix Metalloproteinase-1 (MMP-1), Matrix Metalloproteinase-3 (MMP-3), YKL-40, Leptin, Resistin, Serum Amyloid A (SAA), and C-Reactive Protein (CRP). The twelve biomarkers in VECTRA® DA test are relevant to key aspects of the pathophysiology of RA. Li et al., Curr. Med. Res. & Opin. 29(1): 85-92 (2013). The test measures the concentrations of the biomarkers and provides the concentrations and percentile (RA percentile) value for each biomarker.
The VECTRA DA MBDA test uses Meso Scale Discovery (MSD, Gaithersburg, Md., USA) sandwich immunoassay electrochemiluminescent technology to measure biomarker levels. Eastman et al., J. of Pharmaceutical and Biomedical Analysis 70: 415-424 (2012). In the immunoassay, capture antibodies are spotted on carbon electrodes in a planar array and detection antibodies are labeled with an electrochemiluminescent ruthenium reporter. Id. Upon electrical stimulation, light is produced from reporter molecules bound to the electrode to determine biomarker concentration.

VCAM-1 = settings: literature 1990-2012, ACR abstracts 2006-2013; cited from earlier work
VEGF-A = settings: literature 1990-2012, ACR abstracts 2006-2013; cited from earlier work
IL-6 = settings: literature 1990-2012, ACR abstracts 2006-2013; cited from earlier work
TNFR1 = tested on: TNFR1; set-up: key: Y: biomarkers that are known to be positively affected by a treatment method (i.e., biomarkers that are known to have a favorable response to a treatment method); N: biomarkers that are not known to be positively affected by a treatment method (i.e., biomarkers that are known to have an unfavorable response to a treatment method); biomarkers that are known to be positively affected by a ORENCIA, the brand name of Atabacept; settings: literature 1990-2012, ACR abstracts 2006-2013; cited from earlier work
MMP-1 = settings: literature 1990-2012, ACR abstracts 2006-2013; cited from earlier work
MMP-3 = settings: literature 1990-2012, ACR abstracts 2006-2013; cited from earlier work
YKL-40 = settings: literature 1990-2012, ACR abstracts 2006-2013; cited from earlier work
Leptin = settings: literature; Leptin usable as biomarker only in patients with 15% or less body fat; cited from earlier work
Resistin = settings: literature 1990-2012, ACR abstracts 2006-2013; cited from earlier work
SAA = settings: literature 1990-2012, ACR abstracts 2006-2013; cited from earlier work
CRP = settings: literature 1990-2012, ACR abstracts 2006-2013; cited from earlier work

Tocilizumab [TOCL]
VECTRA DA Score - Decreased by [1]: Decreased by 24
Treatment Outcome [2]: Not effective
Arthritis activity class of VECTRA DA Score ([3]; Patient 6, February 2013): high (a VECTRA DA Score of >44 reflects high disease activity)
Arthritis activity class of VECTRA DA Score ([3]; Patient 6, October 2012): high (a VECTRA DA Score of >44 reflects high disease activity)
VECTRA DA Score ([3]; Patient 6, October 2012, ACTEMRA 4 mg/kg): 54
Treatment Outcome ([4]; Patient 6): Effective, based
Conventional markers of inflammation - ESR and CRP level ([4]; Patient 6, while on ACTEMRA): normalized
Adverse reaction ([4]; in vivo): allergic reaction
Toxicity for which the treatment was excluded ([4]; in vivo): bone marrow
IL-6 elevated level ([5]; Patient 6, February 2013): >99%
MMP-3 elevated level ([5]; Patient 6, February 2013): 61%
Resistin elevated level ([5]; Patient 6, February 2013): 70%
IL-6 elevated level ([5]; Patient 6, October 2012): >99%
MMP-3 elevated level ([5]; Patient 6, October 2012): 88%
Resistin elevated level ([5]; Patient 6, October 2012): 57%
TNF-R1 elevated level ([5]; Patient 6, October 2012): 45%
VCAM-1 positively affected by treatment method (VCAM-1): N
VEGF-A positively affected by treatment method (VEGF-A): Y
IL-6 positively affected by treatment method (IL-6): Y
TNFR1 positively affected by treatment method (TNFR1): N
MMP-1 positively affected by treatment method (MMP-1): Y
MMP-3 positively affected by treatment method (MMP-3): Y
YKL-40 positively affected by treatment method (YKL-40): Y
Leptin positively affected by treatment method (Leptin): N
Resistin positively affected by treatment method (Resistin): N
SAA positively affected by treatment method (SAA): Y
CRP positively affected by treatment method (CRP): Y
